Earlier results as cited in patent publication US20130048853A1, “Adsorbent and Method for Producing Same” (HITACHI HIGH-TECHNOLOGIES CORPORATION, priority 2010, published 2013).
Several values for one entry are separate records, joined by “and”; a condition that tells them apart may be missing. Equal values may be shown once. Read-outs that look alike come from different tables or passages of the source.

[1] = source not stated, calculated or actual values may be applied

logP (octanol-water distribution coefficient) [1] | logP (octanol-water distribution coefficient) | SMILES
3.4 and 3.35 |  | CO[C@H]1C[C@@H]2CC[C@@H](C)[C@@](O)(O2)C(=O)C(=O)N2CCCC[C@H]2C(=O)O[C@H]([C@H](C)C[C@@H]2CC[C@@H](OCCO)[C@H](OC)C2)CC(=O)[C@H](C)/C=C(\C)[C@@H](O)[C@@H](OC)C(=O)[C@H](C)C[C@H](C)/C=C/C=C/C=C/1C [everolimus]
 | 2.5 | O=C1NC(=O)C(c2ccccc2)(c2ccccc2)N1 [phenyloin]
3.5 |  | CO[C@H]1C[C@@H]2CC[C@@H](C)[C@@](O)(O2)C(=O)C(=O)N2CCCC[C@H]2C(=O)O[C@H]([C@H](C)C[C@@H]2CC[C@@H](O)[C@H](OC)C2)CC(=O)[C@H](C)/C=C(\C)[C@@H](O)[C@@H](OC)C(=O)[C@H](C)C[C@H](C)/C=C/C=C/C=C/1C [rapamycin]
